Consider 7 compounds from patent US12018299B2, “Methods and kits for quantifying adenosine-containing molecules” (priority 2017, dated 2024).

The target in one data set is MTAN-D198N (Helicobacter pylori, UniProt Q9ZMY2, D198N). Conditions: for affinity to MTAN-D198N / displacement of AdoHcy-TAMRA: displacement curves, FIG. 10B.
Data set [1] has as its target T1, calf intestinal alkaline phosphatase (CIAP) (Bos taurus, UniProt P19111). Conditions: read-out: Km of ATP for CIAP; competitive FP assay, 0.25 U/mL CIAP.
Description: (§1) Calf Intestinal Alkaline Phosphatase (CIAP) was obtained from New England Biolabs. […] Reactions were initiated by adding ATP at varying concentrations ranging from 0.1 to 20 μM. Due to the ability of ATP to act as an inhibitor of CIAP at high concentrations, steady-state analysis of the resulting data was fitted to a substrate-inhibition equation in Equation 8, below, using Prism 7.
Another data set addresses CIAP (Bos taurus, UniProt P19111). Conditions: molybdenum blue-based assay, previous work, cited from earlier work.
Data set [2] concerns the target T1, calf intestinal alkaline phosphatase (CIAP). The data set can be described thus: biochemical.
Description: as §1
The next data set has as its target HpMTAN (Helicobacter pylori, UniProt Q9ZMY2). Conditions: previously characterized; cited from earlier work.
Data set [3] addresses Mycobacterium smegmatis EgtD (Mycolicibacterium smegmatis, UniProt A0R5M8). Conditions: isothermal calorimetry, previously determined; cited from earlier work.
The test system of data set [4] is N[C@@H](Cc1c[nH]cn1)C(=O)O. Nature of the data set: purified protein, by the assay type. Conditions: pH 8.0; 25.0 °C.

Sequence of MTAN-D198N (Q9ZMY2 whole entry D198N): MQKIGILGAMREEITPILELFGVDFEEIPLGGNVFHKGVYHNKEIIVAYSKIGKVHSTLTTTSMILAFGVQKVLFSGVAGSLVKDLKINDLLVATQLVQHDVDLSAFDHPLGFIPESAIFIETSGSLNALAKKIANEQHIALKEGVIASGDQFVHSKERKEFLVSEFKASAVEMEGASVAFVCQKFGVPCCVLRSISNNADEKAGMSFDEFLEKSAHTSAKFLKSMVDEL
Sequence of Mycobacterium smegmatis EgtD (A0R5M8 whole entry): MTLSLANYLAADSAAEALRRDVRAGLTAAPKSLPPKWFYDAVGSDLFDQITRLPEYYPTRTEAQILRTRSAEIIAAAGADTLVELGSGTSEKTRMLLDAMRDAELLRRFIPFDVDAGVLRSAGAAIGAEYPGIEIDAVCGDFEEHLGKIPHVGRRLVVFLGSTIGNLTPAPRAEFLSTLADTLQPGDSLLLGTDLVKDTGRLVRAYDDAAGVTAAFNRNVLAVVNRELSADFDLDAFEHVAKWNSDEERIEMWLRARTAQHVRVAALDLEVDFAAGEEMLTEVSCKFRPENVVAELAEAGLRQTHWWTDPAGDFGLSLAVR
Sequence of CIAP (P19111 20-506): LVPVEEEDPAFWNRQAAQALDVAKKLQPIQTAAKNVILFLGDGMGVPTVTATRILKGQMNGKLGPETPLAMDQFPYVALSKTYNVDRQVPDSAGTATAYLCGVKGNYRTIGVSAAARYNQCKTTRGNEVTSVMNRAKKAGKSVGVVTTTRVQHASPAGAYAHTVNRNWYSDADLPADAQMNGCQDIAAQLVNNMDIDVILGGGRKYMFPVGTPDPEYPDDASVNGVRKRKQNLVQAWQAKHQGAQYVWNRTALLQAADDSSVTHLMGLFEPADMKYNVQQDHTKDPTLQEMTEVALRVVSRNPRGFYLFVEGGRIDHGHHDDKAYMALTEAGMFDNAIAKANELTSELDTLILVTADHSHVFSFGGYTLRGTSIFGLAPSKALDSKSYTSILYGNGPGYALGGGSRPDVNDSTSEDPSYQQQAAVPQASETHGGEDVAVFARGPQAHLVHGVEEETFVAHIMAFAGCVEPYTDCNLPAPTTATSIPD
T1 sequence (P19111 20-506): as above
Sequence of HpMTAN (Q9ZMY2 whole entry): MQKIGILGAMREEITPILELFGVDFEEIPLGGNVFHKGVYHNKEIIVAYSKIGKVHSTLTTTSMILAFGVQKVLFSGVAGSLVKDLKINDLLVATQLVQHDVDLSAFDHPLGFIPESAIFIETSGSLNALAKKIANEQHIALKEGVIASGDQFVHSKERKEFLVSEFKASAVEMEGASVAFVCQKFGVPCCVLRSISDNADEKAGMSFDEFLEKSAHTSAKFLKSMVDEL

Turning to `Nc1ncnc2c1ncn2[C@@H]1O[C@H](COP(=O)(O)OP(=O)(O)O)[C@@H](O)[C@H]1O` [ADP, adenosine diphosphate], at MTAN-D198N, the “affinity to MTAN-D198N / displacement of AdoHcy-TAMRA” value (from here on “affinity to MTAN-D198N / displacement”) was “M affinity”.

Regarding `Nc1ncnc2c1ncn2[C@@H]1O[C@H](COP(=O)(O)O)[C@@H](O)[C@H]1O` [AMP, adenosine monophosphate], the “affinity to MTAN-D198N / displacement” value at MTAN-D198N is listed as “M affinity”.

By Km is commonly meant the substrate concentration at which the rate is half of its maximum. In the case of `Nc1ncnc2c1ncn2[C@@H]1O[C@H](COP(=O)(O)OP(=O)(O)OP(=O)(O)O)[C@@H](O)[C@H]1O` [ATP, adenosine triphosphate], the Km was 0.9 ± 0.2 µM in data set [1] and 20.5 µM on CIAP (read-out: Km of ATP for CIAP). The values for the Ki (at CIAP (read-out: Ki for substrate inhibition of ATP (CIAP)); in data set [2]) were 19 µM and 7.6 ± 1.8 µM, respectively. Besides, on MTAN-D198N, the “affinity to MTAN-D198N / displacement” value is “unable to displace AdoHcy-TAMRA”.

On to `Nc1ncnc2c1ncn2[C@@H]1O[C@H](CSCC[C@H](N)C(=O)O)[C@@H](O)[C@H]1O` [AdoHcy, S-adenosylhomocysteine], for which the “affinity with HpMTAN” value at HpMTAN was “low p M affinity”. The “limit of detection, amount” value on MTAN-D198N (50 μL reactions) is “about 0.3 pmol”.

As a reminder, the Kd is the equilibrium constant for the complex coming apart. As for `C[S+](CC[C@H](N)C(=O)O)C[C@H]1O[C@@H](n2cnc3c(N)ncnc32)[C@H](O)[C@@H]1O` (stereo partly drawn) [AdoMet, S-adenosyl methionine], in data set [3], the Kd is 270 ± 20 µM.

On to `N[C@@H](Cc1c[nH]cn1)C(=O)O` [L-histidine], for which the Kd in data set [3] was 290 ± 14 µM.

With “EgtD (Mycobacterium tuberculosis CDC1551)”, the Km in data set [4] came to 330 ± 35 µM.
